One assay concerns the target T1, His-hMAGL (recombinant polyhistidine tagged human MAGL protein) (Homo sapiens, UniProt Q99685).
T1 construct: made in house; host or cells: E. coli BL21(DE3)
T1 sequence (Q99685 1-303): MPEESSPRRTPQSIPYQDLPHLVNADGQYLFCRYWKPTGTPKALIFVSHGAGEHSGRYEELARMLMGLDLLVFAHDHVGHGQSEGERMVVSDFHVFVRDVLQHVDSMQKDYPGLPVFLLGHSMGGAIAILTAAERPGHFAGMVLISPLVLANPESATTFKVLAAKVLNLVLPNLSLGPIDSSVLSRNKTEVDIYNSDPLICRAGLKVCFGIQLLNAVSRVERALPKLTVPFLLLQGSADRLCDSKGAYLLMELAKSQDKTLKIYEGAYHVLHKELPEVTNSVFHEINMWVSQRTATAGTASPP
Description: Measurement of MAGL inhibitory activity (arachidonic acid production from 2-arachidonylglycerol, RapidFire-mass spectrometry). Format: biochemical. As to conditions: MAGL inhibitory rate at 10 μM test compound; 60 min preincubation with His-hMAGL, 2-arachidonylglycerol substrate, 10 min reaction at room temperature. A digest of the protocol:
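Inhibition (%) was derived from arachidonic acid levels relative to enzyme-free and compound-free groups. Product was measured by online C4 solid-phase extraction and triple-quadrupole MS in negative SRM mode, corrected by arachidonic acid-d8 (3 μM in the acetonitrile added). Substrate was 2-arachidonylglycerol; enzyme was His-tagged recombinant human MAGL.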
Turning to `O=C1COc2cc(F)c(C(=O)N3CCC(O)(COc4ccc(Cl)cc4Cl)CC3)cc2N1` [Example 74, 6-((4-((2,4-dichlorophenoxy)methyl)-4-hydroxypiperidin-1-yl)carbonyl)-7-fluoro-2H-1,4-benzoxazin-3(4H)-one], the inhibition at 10 µM was determined as 102%. Same read-out and setting: to `CC(OC1CN(C(=O)c2cc3c(cc2F)OCC(=O)N3)C1)c1ccc(F)cc1` (stereo not shown) [Example 354, 7-fluoro-6-((3-(1-(4-fluorophenyl)ethoxy)azetidin-1-yl)carbonyl)-2H-1,4-benzoxazin-3(4H)-one] belongs 102%; to `CC(Oc1c(F)cccc1F)C1CN(C(=O)c2cc3c(cc2F)OCC(=O)N3)C1` (stereo not shown) [Example 306, 6-((3-(1-(2,6-difluorophenoxy)ethyl)azetidin-1-yl)carbonyl)-7-fluoro-2H-1,4-benzoxazin-3(4H)-one], 100%; to `N#Cc1cc(Cl)ccc1OCC1CCN(C(=O)c2cc3c(cc2F)OCC(=O)N3)CC1` [Example 72, 5-chloro-2-((1-((7-fluoro-3-oxo-3,4-dihydro-2H-1,4-benzoxazin-6-yl)carbonyl)piperidin-4-yl)methoxy)benzonitrile], 100%. For the molecule `O=C1COc2cc(F)c(C(=O)N3CCC(COC4CCOCC4)CC3)cc2N1` [Example 83, 7-fluoro-6-((4-((tetrahydro-2H-pyran-4-yloxy)methyl)piperidin-1-yl)carbonyl)-2H-1,4-benzoxazin-3(4H)-one], the inhibition at 10 µM was 86%.

`Cc1cc(-c2ccc(OCC3CN(C(=O)c4cc5c(cc4F)OCC(=O)N5)C3)c(F)c2)nn1C` [Example 253, 6-((3-((4-(1,5-dimethyl-1H-pyrazol-3-yl)-2-fluorophenoxy)methyl)azetidin-1-yl)carbonyl)-7-fluoro-2H-1,4-benzoxazin-3(4H)-one]: the inhibition at 10 µM amounted to 102%. Still for that read-out and setting: then `COC(=O)c1cc(F)ccc1OCC1CCN(C(=O)c2cc3c(cc2F)OCC(=O)N3)CC1` [Example 85, methyl 5-fluoro-2-((1-((7-fluoro-3-oxo-3,4-dihydro-2H-1,4-benzoxazin-6-yl)carbonyl)piperidin-4-yl)methoxy)benzoate], with 102%; and `O=C1COc2cc(F)c(C(=O)N3CC(COc4ccc(Cl)cc4Br)C3)cc2N1` [Example 185, 6-((3-((2-bromo-4-chlorophenoxy)methyl)azetidin-1-yl)carbonyl)-7-fluoro-2H-1,4-benzoxazin-3(4H)-one], with 100%.

As to `O=C1COc2cc(F)c(C(=O)N3CC(COc4ccc5c(c4)CCCC5)C3)cc2N1` [Example 102, 7-fluoro-6-((3-((5,6,7,8-tetrahydronaphthalen-2-yloxy)methyl)azetidin-1-yl)carbonyl)-2H-1,4-benzoxazin-3(4H)-one], the inhibition at 10 µM turned out to be 102%. For `Cc1cc(C)c(OCC2CN(C(=O)c3cc4c(cc3F)OCC(=O)N4)C2)cn1` [Example 142, 6-((3-(((4,6-dimethylpyridin-3-yl)oxy)methyl)azetidin-1-yl)carbonyl)-7-fluoro-2H-1,4-benzoxazin-3(4H)-one], the inhibition at 10 µM worked out at 102%. On to `Cc1ccc(OCC2CN(C(=O)c3cc4c(cc3F)OCC(=O)N4)C2)cc1C` [Example 163, 6-((3-((3,4-dimethylphenoxy)methyl)azetidin-1-yl)carbonyl)-7-fluoro-2H-1,4-benzoxazin-3(4H)-one], for which the inhibition at 10 µM came out at 100%. As to `Cc1ncccc1-c1ccc(OCC2CN(C(=O)c3cc4c(cc3F)OCC(=O)N4)C2)c(F)c1` [Example 262, 7-fluoro-6-((3-((2-fluoro-4-(2-methylpyridin-3-yl)phenoxy)methyl)azetidin-1-yl)carbonyl)-2H-1,4-benzoxazin-3(4H)-one], the inhibition at 10 µM came to 98%. For `COc1cccc(COC2CN(C(=O)c3cc4c(cc3F)OCC(=O)N4)C2)c1` [Example 328, 7-fluoro-6-((3-((3-methoxybenzyl)oxy)azetidin-1-yl)carbonyl)-2H-1,4-benzoxazin-3(4H)-one], the inhibition at 10 µM was determined as 101%.

For the molecule `N#Cc1ccc(OCC2CCN(C(=O)c3cc4c(cc3F)OCC(=O)N4)CC2)c(Cl)c1` [Example 70, 3-chloro-4-((1-((7-fluoro-3-oxo-3,4-dihydro-2H-1,4-benzoxazin-6-yl)carbonyl)piperidin-4-yl)methoxy)benzonitrile], the inhibition at 10 µM amounted to 100%.

Consider `O=C1COc2ncc(C(=O)N3CCC(COc4cccc(Cl)c4)CC3)cc2N1` [Example 13, 7-((4-((3-chlorophenoxy)methyl)piperidin-1-yl)carbonyl)-1H-pyrido[2,3-b][1,4]oxazin-2(3H)-one], for which the inhibition at 10 µM came out at 99%. Still for that read-out and setting: to `O=C1COc2ncc(C(=O)N3CCC(COc4ccc(Cl)cc4)CC3)cc2N1` [Example 6, 7-((4-((4-chlorophenoxy)methyl)piperidin-1-yl)carbonyl)-1H-pyrido[2,3-b][1,4]oxazin-2(3H)-one] belongs 98%. Same read-out and setting: then `Cn1cccc1-c1cc(Cl)ccc1OCC1CN(C(=O)c2cc3c(cc2F)OCC(=O)N3)C1` [Example 219, 6-((3-((4-chloro-2-(1-methyl-1H-pyrrol-2-yl)phenoxy)methyl)azetidin-1-yl)carbonyl)-7-fluoro-2H-1,4-benzoxazin-3(4H)-one], with 101%. As for `O=C1COc2cc(F)c(C(=O)N3CC(COc4ccc(Cl)cc4-c4ccc(Cl)cn4)C3)cc2N1` [Example 196, 6-((3-((4-chloro-2-(5-chloropyridin-2-yl)phenoxy)methyl)azetidin-1-yl)carbonyl)-7-fluoro-2H-1,4-benzoxazin-3(4H)-one], the inhibition at 10 µM stood at 94%. The same measure, in the same setting: to `O=C1COc2cc(F)c(C(=O)N3CC(COc4ccc(-c5cccnc5Cl)cc4F)C3)cc2N1` [Example 232, 6-((3-((4-(2-chloropyridin-3-yl)-2-fluorophenoxy)methyl)azetidin-1-yl)carbonyl)-7-fluoro-2H-1,4-benzoxazin-3(4H)-one] belongs 99%; to `N#Cc1ccc(OCC2CN(C(=O)c3cc4c(cc3F)OCC(=O)N4)C2)cc1Cl` [Example 138, 2-chloro-4-((1-((7-fluoro-3-oxo-3,4-dihydro-2H-1,4-benzoxazin-6-yl)carbonyl)azetidin-3-yl)methoxy)benzonitrile], 100%. For the molecule `COCC(Oc1ccc(Cl)cc1F)C1CN(C(=O)c2cc3c(cc2F)OCC(=O)N3)C1` (stereo not shown) [Example 309, 6-((3-(1-(4-chloro-2-fluorophenoxy)-2-methoxyethyl)azetidin-1-yl)carbonyl)-7-fluoro-2H-1,4-benzoxazin-3(4H)-one], the inhibition at 10 µM came to 98%. For the molecule `Cc1ccnc(-c2ccc(OCC3CN(C(=O)c4cc5c(cc4F)OCC(=O)N5)C3)c(F)c2)c1` [Example 276], the inhibition at 10 µM was found to be 97%.

Turning to `CS(=O)(=O)c1ccc(COC2CN(C(=O)c3cc4c(cc3F)OCC(=O)N4)C2)cc1` [Example 337, 7-fluoro-6-((3-((4-(methylsulfonyl)benzyl)oxy)azetidin-1-yl)carbonyl)-2H-1,4-benzoxazin-3(4H)-one], the inhibition at 10 µM amounted to 92%. For the molecule `O=C1COc2cc(F)c(C(=O)N3CC(OCc4ccc(N5CC(F)C5)cc4Cl)C3)cc2N1` [Example 353, 6-((3-((2-chloro-4-(3-fluoroazetidin-1-yl)benzyl)oxy)azetidin-1-yl)carbonyl)-7-fluoro-2H-1,4-benzoxazin-3(4H)-one], the inhibition at 10 µM came to 100%. Still for that read-out and setting: to `O=C1COc2cc(F)c(C(=O)N3CC(COCC4CC4)C3)cc2N1` [Example 225, 6-((3-((cyclopropylmethoxy)methyl)azetidin-1-yl)carbonyl)-7-fluoro-2H-1,4-benzoxazin-3(4H)-one] belongs 85%. For `Cc1ccc(OCC2CN(C(=O)c3cc4c(cc3F)OCC(=O)N4)C2)cc1` [Example 161, 7-fluoro-6-((3-((4-methylphenoxy)methyl)azetidin-1-yl)carbonyl)-2H-1,4-benzoxazin-3(4H)-one], the inhibition at 10 µM is 102%.

As to `O=C1COc2ccc(C(=O)N3CCC(COc4ccc(Cl)nc4)CC3)cc2N1` [Example 44, 6-((4-(((6-chloropyridin-3-yl)oxy)methyl)piperidin-1-yl)carbonyl)-2H-1,4-benzoxazin-3(4H)-one], the inhibition at 10 µM was determined as 90%.

With `Cc1ccc(OCC2CCN(C(=O)c3ccc4c(c3)NC(=O)CO4)CC2)c(C)n1` [Example 38, 6-((4-(((2,6-dimethylpyridin-3-yl)oxy)methyl)piperidin-1-yl)carbonyl)-2H-1,4-benzoxazin-3(4H)-one], the inhibition at 10 µM worked out at 84%. As to `O=C1COc2cc(F)c(C(=O)N3CC(COc4ccc(Cl)c(F)c4)C3)cc2N1` [Example 130, 6-((3-((4-chloro-3-fluorophenoxy)methyl)azetidin-1-yl)carbonyl)-7-fluoro-2H-1,4-benzoxazin-3(4H)-one], the inhibition at 10 µM was 103%. On to `O=C1COc2cc(F)c(C(=O)N3CC(COc4ccc(Cl)cc4-c4nnco4)C3)cc2N1` [Example 175, 6-((3-((4-chloro-2-(1,3,4-oxadiazol-2-yl)phenoxy)methyl)azetidin-1-yl)carbonyl)-7-fluoro-2H-1,4-benzoxazin-3(4H)-one], for which the inhibition at 10 µM was determined as 97%.

Still in this assay, the particulars now being: MAGL inhibitory rate at 10 μM test compound; 60 min preincubation with His-hMAGL, 2-arachidonylglycerol substrate, 10 min reaction at room temperature; 10 µM.
For the molecule `CC(Oc1cc(F)cc(F)c1)C1CN(C(=O)c2cc3c(cc2F)OCC(=O)N3)C1` (stereo not shown) [Example 314, 6-((3-(1-(3,5-difluorophenoxy)ethyl)azetidin-1-yl)carbonyl)-7-fluoro-2H-1,4-benzoxazin-3(4H)-one], the “% inhibition (10 μM)” value turned out to be 98%.

What is called inhibition is the drop in the measured response relative to a control, in per cent.
